15 compounds from patent US20220125051A1, “PRE-HARVEST DESICCATION METHOD” (SYNGENTA CROP PROTECTION AG, priority 2019, published 2022) can be followed below.

Common to all, as to assay: Post-emergence efficacy, Method A
Format in all cases: in vivo

Test [1] concerns Chenopodium album (CHEAL). Conditions: Application rate 500 g/Ha, evaluated after 13 days, 100=total damage to plant, 0=no damage to plant; for pest or weed control at 500 g/ha: Chenopodium album, post-emergence, 312 h, read-out: Control of weed species after post-emergence application, CHEAL. A digest of the protocol:
(§1)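 Visual damage score, 0 (no damage) to 100 (total), taken 13 d after spraying. Pot-grown plants at 14 d post-sowing received an aqueous spray from a 50 g/l acetone/IF50 solution diluted in 0.25% or 1% Empicol ESC70 + 1% ammonium sulphate; glasshouse 24/16 °C, 14 h light, 65% RH, watered twice daily.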

A further test concerns Setaria faberi (SETFA). Conditions: Application rate 500 g/Ha, evaluated after 13 days, 100=total damage to plant, 0=no damage to plant; for pest or weed control at 500 g/ha: Setaria faberi, post-emergence, 312 h, read-out: Control of weed species after post-emergence application, SETFA. A digest of the protocol: as §1
Test [2] has as its system Euphorbia heterophylla (EPHHL). Conditions: Application rate 500 g/Ha, evaluated after 13 days, 100=total damage to plant, 0=no damage to plant; for pest or weed control at 500 g/ha: Euphorbia heterophylla, post-emergence, 312 h, read-out: Control of weed species after post-emergence application, EPHHL. In outline: as §1
Test [3] concerns Amaranthus palmeri (AMAPA). Particulars: Application rate 500 g/Ha, evaluated after 13 days, 100=total damage to plant, 0=no damage to plant; for pest or weed control at 500 g/ha: Amaranthus palmeri, post-emergence, 312 h, read-out: Control of weed species after post-emergence application, AMAPA. A digest of the protocol:
as §1

Another test deals with Lolium perenne (LOLPE). Particulars: Application rate 500 g/Ha, evaluated after 13 days, 100=total damage to plant, 0=no damage to plant; for pest or weed control at 500 g/ha: Lolium perenne, post-emergence, 312 h, read-out: Control of weed species after post-emergence application, LOLPE. In outline: as §1
The subject of test [4] is Echinochloa crus-galli (ECHCG). Conditions: Application rate 500 g/Ha, evaluated after 13 days, 100=total damage to plant, 0=no damage to plant; for pest or weed control at 500 g/ha: Echinochloa crus-galli, post-emergence, 312 h, read-out: Control of weed species after post-emergence application, ECHCG. A digest of the protocol:
as §1

The subject of a further test is Eleusine indica (ELEIN). Particulars: Application rate 500 g/Ha, evaluated after 13 days, 100=total damage to plant, 0=no damage to plant; for pest or weed control at 500 g/ha: Eleusine indica, post-emergence, 312 h, read-out: Control of weed species after post-emergence application, ELEIN. In outline: as §1
In test [5] the test system is Ipomoea hederacea (IPOHE). Particulars: Application rate 500 g/Ha, evaluated after 13 days, 100=total damage to plant, 0=no damage to plant; for pest or weed control at 500 g/ha: Ipomoea hederacea, post-emergence, 312 h, read-out: Control of weed species after post-emergence application, IPOHE. A digest of the protocol: as §1
Test [6] has as its system Digitaria sanguinalis (DIGSA). Conditions: Application rate 500 g/Ha, evaluated after 13 days, 100=total damage to plant, 0=no damage to plant; for pest or weed control at 500 g/ha: Digitaria sanguinalis, post-emergence, 312 h, read-out: Control of weed species after post-emergence application, DIGSA. In outline: as §1

For `CS(=O)(=O)NC(=O)CC[n+]1ccc(-c2ncccn2)cn1` [Compound A89], the pest or weed control at 500 g/ha worked out at 40% in [1]; 70% with Setaria faberi (SETFA); 100% in test [2]; 100% in test [3]; 40% with Lolium perenne (LOLPE); 60% in [4]. Besides, the values for the pest or weed control at 500 g/ha (with Eleusine indica (ELEIN); in test [5]; in [6]) were 40%, 70% and 50%, respectively.

For the compound `COc1cncc(-c2cc[n+](CCCS(=O)(=O)[O-])nc2)n1` [Compound A90], the pest or weed control at 500 g/ha stood at 20% in test [1]; 30% in the test on Setaria faberi (SETFA); 60% in [2]; 40% in [3]; 20% in the test with Lolium perenne (LOLPE); 20% in [4]. Further, the pest or weed control at 500 g/ha was 20% with Eleusine indica (ELEIN), 30% in [5] and 30% in [6].

For the compound `CCOC(=O)CC[n+]1ccc(-c2ccccn2)cn1` [Compound A91], the pest or weed control at 500 g/ha in [1] was found to be 20%; with Setaria faberi (SETFA) it was 60%; in [2], 40%; in test [3], 40%; in the test with Lolium perenne (LOLPE) it was 20%; in [4], 60%. Also, the pest or weed control at 500 g/ha stood at 60% in the test on Eleusine indica (ELEIN), 20% in [5] and 50% in [6].

Take `CN(C)C(=O)c1cnc(-c2cc[n+](CCC(=O)[O-])nc2)nc1` [Compound A92]: the pest or weed control at 500 g/ha amounted to 90% in test [1]; 90% in the test with Setaria faberi (SETFA); 70% in test [2]; 90% in [3]; 50% with Lolium perenne (LOLPE); 80% in [4]. For the same compound, the pest or weed control at 500 g/ha worked out at 90% in the test with Eleusine indica (ELEIN), 100% in test [5] and 60% in test [6].

In the case of `CNC(=O)c1cnc(-c2cc[n+](CCC(=O)[O-])nc2)nc1` [Compound A93], the pest or weed control at 500 g/ha stood at 80% in test [1]; 100% with Setaria faberi (SETFA); 40% in test [2]; 90% in [3]; 80% with Lolium perenne (LOLPE); 80% in test [4]. The results for the pest or weed control at 500 g/ha (with Eleusine indica (ELEIN); in test [5]; in test [6]) were 100%, 20% and 100%, respectively.

Turning to `COc1cc(C)nc(-c2cc[n+](CCS(=O)(=O)O)nc2)n1` [Compound A94], in test [1], the “Control of weed species after post-emergence application, CHEAL” value amounted to 90. Besides, the “Control of weed species after post-emergence application, SETFA” value in the test on Setaria faberi (SETFA) amounted to 40. Moreover, the “Control of weed species after post-emergence application, EPHHL” value in test [2] was 40. In test [3], the “Control of weed species after post-emergence application, AMAPA” value came to 70. Also, the “Control of weed species after post-emergence application, LOLPE” value with Lolium perenne (LOLPE) turned out to be 20. The “Control of weed species after post-emergence application, ECHCG” value in test [4] came out at 30. In addition, in the test with Eleusine indica (ELEIN), the “Control of weed species after post-emergence application, ELEIN” value was found to be 20. In addition, the “Control of weed species after post-emergence application, IPOHE” value in test [5] stood at 30. For the same compound, the “Control of weed species after post-emergence application, DIGSA” value in [6] was found to be 30.

Turning to `Cc1cc(=O)[nH]c(-c2cc[n+](CCS(=O)(=O)[O-])nc2)n1` [Compound A95], the pest or weed control at 500 g/ha came to 40% in test [1]; 50% in the test on Setaria faberi (SETFA); 40% in [2]; 30% in test [3]; 20% in the test on Lolium perenne (LOLPE); 50% in test [4]. The pest or weed control at 500 g/ha with Eleusine indica (ELEIN) is 30%; in [5] it was 30%; in test [6], 40%.

For `Cc1cnc(-c2cc[n+](CCC(=O)[O-])nc2)nc1C` [Compound A96], the pest or weed control at 500 g/ha in test [1] stood at 20%; in the test on Setaria faberi (SETFA), 70%; in test [2], 90%; in [3] it was 70%; in the test with Lolium perenne (LOLPE), 60%; in test [4], 70%. The pest or weed control at 500 g/ha (in the test on Eleusine indica (ELEIN); in [5]; in test [6]) was 40% in each case.

Turning to `Cc1cnc(-c2cc[n+](CCS(=O)(=O)[O-])nc2)nc1C` [Compound A97], the pest or weed control at 500 g/ha in test [1] stood at 20%; in the test on Setaria faberi (SETFA) it was 90%; in test [2], 70%; in [3], 90%; with Lolium perenne (LOLPE) it was 70%; in [4], 90%. Also, the pest or weed control at 500 g/ha in the test with Eleusine indica (ELEIN) is 90%; in [5] it was 30%; in test [6], 90%.

On to `O=S(=O)([O-])CCC[n+]1ccc(-c2cnc(F)cn2)cn1` [Compound A98], for which the pest or weed control at 500 g/ha came to 20% in [1]; 20% with Setaria faberi (SETFA); 40% in test [2]; 40% in test [3]; 0% in the test on Lolium perenne (LOLPE); 20% in test [4]. Further, the pest or weed control at 500 g/ha came out at 20% with Eleusine indica (ELEIN), 30% in test [5] and 10% in test [6].

For `Cc1nc(-c2cc[n+](CCS(=O)(=O)[O-])nc2)ncc1Cl` [Compound A99], the pest or weed control at 500 g/ha in test [1] came out at 30%; in the test on Setaria faberi (SETFA) it was 50%; in [2], 90%; in test [3], 80%; with Lolium perenne (LOLPE), 20%; in [4] it was 50%. Also, the pest or weed control at 500 g/ha is 80% in the test with Eleusine indica (ELEIN), 30% in [5] and 40% in test [6].

As for `Cc1nc(-c2cc[n+](CCC(=O)[O-])nc2)ncc1Cl` [Compound A100], the pest or weed control at 500 g/ha in test [1] turned out to be 60%; with Setaria faberi (SETFA), 20%; in [2], 90%; in [3], 60%; in the test on Lolium perenne (LOLPE), 10%; in test [4], 70%. In addition, the pest or weed control at 500 g/ha is 60% in the test on Eleusine indica (ELEIN), 20% in test [5] and 40% in test [6].

In the case of `COc1ccnc(-c2cc[n+](CCC(=O)[O-])nc2)n1` [Compound A101], the pest or weed control at 500 g/ha in [1] came out at 70%; in the test on Setaria faberi (SETFA), 80%; in test [2], 80%; in test [3], 80%; with Lolium perenne (LOLPE) it was 70%; in test [4] it was 60%. Further, the pest or weed control at 500 g/ha in the test on Eleusine indica (ELEIN) turned out to be 40%; in test [5], 10%; in test [6], 60%.

Regarding `Cc1cc(Cl)cnc1-c1cc[n+](CCCS(=O)(=O)[O-])nc1` [Compound A102], the pest or weed control at 500 g/ha was 50% in [1]; 10% in the test on Setaria faberi (SETFA); 20% in test [2]; 20% in [3]; 10% in the test with Lolium perenne (LOLPE); 10% in [4]. The pest or weed control at 500 g/ha with Eleusine indica (ELEIN) was 10%; in test [5], 0%; in test [6], 10%.

As to `Cc1cc(Cl)cnc1-c1cc[n+](CCS(=O)(=O)[O-])nc1` [Compound A103], the pest or weed control at 500 g/ha in test [1] came out at 50%; with Setaria faberi (SETFA), 10%; in test [2], 50%; in test [3], 0%; with Lolium perenne (LOLPE), 10%; in test [4], 30%. For the same compound, the pest or weed control at 500 g/ha with Eleusine indica (ELEIN) came to 30%; in test [5], 30%; in [6] it was 20%.
